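Each compound was tested at five concentrations against cells in 96-well plates for 48 hours. TGI: concentration producing complete growth inhibition.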
Assays:
Assay in all cases: DTP human tumour cell line panel, 48 h
[1] = tested on: 786-0 renal
[2] = tested on: A549 NSCLC
[3] = tested on: ACHN renal
[4] = tested on: CAKI-1 renal
[5] = tested on: CCRF-CEM leukemia
[6] = tested on: COLO 205 colon
[7] = tested on: DU-145 prostate
[8] = tested on: EKVX NSCLC
[9] = tested on: HCC-2998 colon
[10] = tested on: HCT-116 colon
[11] = tested on: HCT-15 colon
[12] = tested on: HL-60(TB) leukemia
[13] = tested on: HOP-62 NSCLC
[14] = tested on: HOP-92 NSCLC
[15] = tested on: HS 578T breast
[16] = tested on: HT29 colon
[17] = tested on: IGROV1 ovarian
[18] = tested on: K-562 leukemia
[19] = tested on: KM12 colon
[20] = tested on: LOX IMVI melanoma
[21] = tested on: M14 melanoma
[22] = tested on: MALME-3M melanoma
[23] = tested on: MCF7 breast
[24] = tested on: MDA-MB-231 breast
[25] = tested on: MDA-MB-435
[26] = tested on: MDA-N
[27] = tested on: MOLT-4 leukemia
[28] = tested on: NCI-H226 lung
[29] = tested on: NCI-H23 lung
[30] = tested on: NCI-H460 lung
[31] = tested on: NCI-H522 lung
[32] = tested on: NCI/ADR-RES ovarian
[33] = tested on: OVCAR-3 ovarian
[34] = tested on: OVCAR-4 ovarian
[35] = tested on: OVCAR-5 ovarian
[36] = tested on: OVCAR-8 ovarian
[37] = tested on: PC-3 prostate
[38] = tested on: RPMI-8226 leukemia
[39] = tested on: SF-268 CNS
[40] = tested on: SF-295 CNS
[41] = tested on: SF-539 CNS
[42] = tested on: SK-MEL-2 melanoma
[43] = tested on: SK-MEL-28 melanoma
[44] = tested on: SK-MEL-5 melanoma
[45] = tested on: SN12C renal
[46] = tested on: SNB-19 CNS
[47] = tested on: SNB-75 CNS
[48] = tested on: SR leukemia
[49] = tested on: SW-620 colon
[50] = tested on: T-47D breast
[51] = tested on: TK-10 renal
[52] = tested on: U251 CNS
[53] = tested on: UACC-257 melanoma
[54] = tested on: UO-31 renal
[55] = tested on: A498 renal
[56] = tested on: RXF 393 renal
[57] = tested on: SK-OV-3 ovarian

## Cc1occc(=O)c1O
[1]
  TGI: > 100 µM
[2]
  TGI: > 100 µM
[3]
  TGI: > 100 µM
[4]
  TGI: > 100 µM
[5]
  TGI: > 100 µM
[6]
  TGI: > 100 µM
[7]
  TGI: > 100 µM
[8]
  TGI: > 100 µM
[9]
  TGI: > 100 µM
[10]
  TGI: > 100 µM
[11]
  TGI: 28.7 µM
[12]
  TGI: > 100 µM
[13]
  TGI: > 100 µM
[14]
  TGI: > 100 µM
[15]
  TGI: > 100 µM
[16]
  TGI: > 100 µM
[17]
  TGI: > 100 µM
[18]
  TGI: > 100 µM
[19]
  TGI: > 100 µM
[20]
  TGI: > 100 µM
[21]
  TGI: > 100 µM
[22]
  TGI: > 100 µM
[23]
  TGI: > 100 µM
[24]
  TGI: 16.4 µM
[25]
  TGI: > 100 µM
[26]
  TGI: > 100 µM
[27]
  TGI: > 100 µM
[28]
  TGI: > 100 µM
[29]
  TGI: > 100 µM
[30]
  TGI: > 100 µM
[31]
  TGI: > 100 µM
[32]
  TGI: > 100 µM
[33]
  TGI: > 100 µM
[34]
  TGI: > 100 µM
[35]
  TGI: > 100 µM
[36]
  TGI: > 100 µM
[37]
  TGI: > 100 µM
[38]
  TGI: > 100 µM
[39]
  TGI: > 100 µM
[40]
  TGI: > 100 µM
[41]
  TGI: > 100 µM
[42]
  TGI: > 100 µM
[43]
  TGI: > 100 µM
[44]
  TGI: > 100 µM
[45]
  TGI: 24.8 µM
[46]
  TGI: > 100 µM
[47]
  TGI: > 100 µM
[48]
  TGI: > 100 µM
[49]
  TGI: > 100 µM
[50]
  TGI: > 100 µM
[51]
  TGI: > 100 µM
[52]
  TGI: > 100 µM
[53]
  TGI: > 100 µM
[54]
  TGI: > 100 µM

## CC(C)=CCC/C(C)=C\CC/C(C)=C/CO
[1]
  TGI: 31.1 µM
[2]
  TGI: > 100 µM
[3]
  TGI: 70.7 µM
[4]
  TGI: > 10 µM
[5]
  TGI: 43.7 µM
[6]
  TGI: > 100 µM
[7]
  TGI: > 100 µM
[8]
  TGI: > 100 µM
[9]
  TGI: 43.1 µM
[10]
  TGI: 36.9 µM
[11]
  TGI: > 100 µM
[12]
  TGI: 35.4 µM
[13]
  TGI: 40.3 µM
[14]
  TGI: 22.7 µM
[15]
  TGI: 67.9 µM
[16]
  TGI: 37.6 µM
[17]
  TGI: 55.9 µM
[18]
  TGI: 42.2 µM
[19]
  TGI: > 100 µM
[20]
  TGI: > 10 µM
[21]
  TGI: 37.2 µM
[22]
  TGI: 32.3 µM
[23]
  TGI: 38.2 µM
[24]
  TGI: > 100 µM
[25]
  TGI: 38.3 µM
[26]
  TGI: > 100 µM
[27]
  TGI: 42.9 µM
[28]
  TGI: > 100 µM
[29]
  TGI: 62.2 µM
[30]
  TGI: > 10 µM
[31]
  TGI: 27.2 µM
[32]
  TGI: 42.6 µM
[33]
  TGI: 30.4 µM
[34]
  TGI: 50.4 µM
[35]
  TGI: > 100 µM
[36]
  TGI: 48.7 µM
[37]
  TGI: > 100 µM
[38]
  TGI: 36.9 µM
[39]
  TGI: > 100 µM
[40]
  TGI: 57.2 µM
[41]
  TGI: 47.8 µM
[42]
  TGI: 30.4 µM
[43]
  TGI: > 100 µM
[44]
  TGI: 61.8 µM
[45]
  TGI: > 100 µM
[46]
  TGI: 65.6 µM
[47]
  TGI: > 100 µM
[48]
  TGI: 47.6 µM
[49]
  TGI: > 100 µM
[50]
  TGI: > 100 µM
[51]
  TGI: > 100 µM
[52]
  TGI: 33.3 µM
[53]
  TGI: > 100 µM
[54]
  TGI: > 100 µM

## CCCCCCCCCCCC1=NCCN1
[55]
  TGI: 43.2 µM
[2]
  TGI: > 100 µM
[3]
  TGI: > 100 µM
[5]
  TGI: 75.4 µM
[6]
  TGI: 35.4 µM
[7]
  TGI: > 100 µM
[9]
  TGI: 39 µM
[10]
  TGI: > 100 µM
[11]
  TGI: 32.7 µM
[14]
  TGI: > 100 µM
[15]
  TGI: > 100 µM
[16]
  TGI: > 100 µM
[18]
  TGI: > 100 µM
[19]
  TGI: > 100 µM
[20]
  TGI: 22.9 µM
[21]
  TGI: > 100 µM
[23]
  TGI: > 100 µM
[24]
  TGI: 68.9 µM
[25]
  TGI: > 100 µM
[26]
  TGI: > 100 µM
[27]
  TGI: 60.5 µM
[28]
  TGI: > 100 µM
[29]
  TGI: > 100 µM
[30]
  TGI: > 100 µM
[31]
  TGI: 67.5 µM
[32]
  TGI: > 100 µM
[33]
  TGI: > 100 µM
[34]
  TGI: 38.7 µM
[36]
  TGI: > 100 µM
[37]
  TGI: 44.1 µM
[56]
  TGI: > 100 µM
[39]
  TGI: > 100 µM
[40]
  TGI: > 100 µM
[43]
  TGI: > 100 µM
[44]
  TGI: > 100 µM
[57]
  TGI: > 100 µM
[45]
  TGI: > 100 µM
[46]
  TGI: > 100 µM
[47]
  TGI: 92.3 µM
[48]
  TGI: 48 µM
[49]
  TGI: > 100 µM
[50]
  TGI: > 100 µM
[51]
  TGI: > 100 µM
[52]
  TGI: > 100 µM
[53]
  TGI: > 100 µM
[54]
  TGI: 95.1 µM

— PubChem BioAssay (NCI)
